Measured values from US20180116993A1, “MODULATORS OF FARNESOID X RECEPTOR AND METHODS FOR THE USE THEREOF” (XIAMEN UNIVERSITY, priority 2015, published 2018).
Like-named read-outs stand apart in the source and are kept apart here. Marks after values point to notes of the source that are not given here.

Columns and labels:
[1] = system: human cervical carcinoma Hela cells; assay: MTT cell viability assay, Hela; format: cell-based; conditions: 48 h, read-out: Cell viability as a percentage of the cells treated with DMSO, Hela
Excerpt: (§1) The MTT assay is a colorimetric assay for assessing cell metabolic activity. It is widely used in high-throughput screening of antitumor drugs due to its high sensitivity and economical features. In this example, MTT was used to detect the inhibitory effects of compounds on various cancer cell lines. Cancer cells including human colorectal adenocarcinoma HCT15 cells, RA-resistant human colon cancer HCT116 cells, human cervical carcinoma Hela cells, human hepatoma HepG2 cells and human breast cancer MCF7 cells were cultured in DMEM medium containing 10% fetal bovine serum. 20 uM or 40 uM of compounds were administered to treat cells, cell viability is detected by MTT assay and expressed as a percentage of the cells treated with DMSO (Table 4).

[2] = system: inflammatory cytokines in tissues of db/db mice; assay: Inflammatory cytokine mRNA levels in tissues of high-fat diet fed db/db mice (RT-PCR); format: in vivo, mouse; conditions: 5 mg/kg
Excerpt: In this example, we detected the levels of various inflammatory cytokines including iNOS, IFNγ, TGFβ, TNFα, COX2, IL-1β, IL-6, SAA1, MIP-1α and CD36 in liver, kidney, white adipose tissue (WAT) in various mice models, including wild type mice treated with APAP in example 4, high-fat diet fed diabetic and obesity db/db and KK-Ay mice in example 5, high-fat diet fed wild-type mice in Example 5, as well as in primary hepatocytes with LPS induced inflammation, using RT-PCR.

[3] = system: human colorectal adenocarcinoma HCT15 cells; assay: MTT cell viability assay, HCT15; format: cell-based; conditions: 48 h, read-out: Cell viability as a percentage of the cells treated with DMSO, HCT15; for viability at 20 µM: HCT-15, 20 uM; for viability at 40 µM: HCT-15, 40 uM
Excerpt: as §1

[4] = system: human breast cancer MCF7 cells; assay: MTT cell viability assay, MCF-7; format: cell-based; conditions: 48 h, read-out: Cell viability as a percentage of the cells treated with DMSO, MCF-7
Excerpt: as §1

[5] = system: human hepatoma HepG2 cells; assay: MTT cell viability assay, HepG2; format: cell-based; conditions: 48 h, read-out: Cell viability as a percentage of the cells treated with DMSO, HepG2
Excerpt: as §1

full-length FXR = target: T1, full-length FXR (Homo sapiens, UniProt Q96RI1); assay: Cell-based FXR transactivation, EcRE luciferase reporter in COS-7 cells; conditions: Table 2; for Cell-based FXR transactivation Fold changes by 5 μM compound: positive: induction, minus: repression; for EC50: EcRE luciferase reporter
T1 construct: The cells were co-transfected with plasmids encoding full-length FXR and the cognate luciferase reporter EcRE-Luc; expressed in transfected cells; host or cells: COS-7
T1 sequence (Q96RI1 1-486): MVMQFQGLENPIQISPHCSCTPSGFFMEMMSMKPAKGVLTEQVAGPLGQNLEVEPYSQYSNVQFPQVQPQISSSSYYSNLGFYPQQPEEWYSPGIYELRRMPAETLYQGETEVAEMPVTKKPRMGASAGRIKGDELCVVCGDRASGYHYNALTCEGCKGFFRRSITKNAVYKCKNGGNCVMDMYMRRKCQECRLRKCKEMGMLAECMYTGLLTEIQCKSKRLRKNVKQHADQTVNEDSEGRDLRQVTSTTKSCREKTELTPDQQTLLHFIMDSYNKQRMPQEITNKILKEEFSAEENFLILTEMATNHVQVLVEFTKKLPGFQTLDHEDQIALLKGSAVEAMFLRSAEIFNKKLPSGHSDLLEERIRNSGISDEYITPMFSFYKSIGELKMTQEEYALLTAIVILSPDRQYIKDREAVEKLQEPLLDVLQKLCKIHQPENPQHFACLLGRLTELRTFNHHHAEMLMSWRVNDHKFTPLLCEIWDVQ
Protocol: COS-7 cells were cotransfected with plasmids encoding full length FXR.
For transient transfection assay, COS-7 cells were maintained in DMEM containing 10% fetal bovine serum and were transiently transfected using Lipofectamine 2000 (Invitrogen). Before 24 h of transfection, 24-well plates were plated. The cells were co-transfected with plasmids encoding full-length FXR and the cognate luciferase reporter EcRE-Luc. Ligands were added 5 hours after transfection. Cells were harvested 24 hours later for the luciferase assays according to the manufacturer's instructions (Dual-Luciferase® Reporter Assay System, Promega). Luciferase activities were normalized to renilla activity co-transfected as an internal control.

[6] = system: RA-resistant human colon cancer HCT116 cells; assay: MTT cell viability assay, HCT116; format: cell-based; conditions: 48 h, read-out: Cell viability as a percentage of the cells treated with DMSO, HCT116; for viability at 20 µM: HCT-116, 20 uM; for viability at 40 µM: HCT-116, 40 uM
Excerpt: as §1

db/db mice [7] = assay: Serum/blood metabolic parameters in high-fat diet fed db/db mice; format: in vivo, mouse; conditions: 10 mg/kg, treat for 10 days, vehicle 527 ± 63
Excerpt: KK-Ay mice (KK/Upj-Ay/J) are animal models with moderate obese and diabetes with insulin resistance. KK-Ay mice develop hyperglycemia, hyperinsulinemia, glucose intolerance and obesity as well as fat accumulation in liver by eight weeks of age. Pancreatic islets are hypertrophied and the β-cells are degranulated. db/db mice (BKS.Cg-Dockr+/+ Lepr^db/Jnju) are animal models of type II diabetes. They have the phenotype of insulin resistance. These model mice were used to detect the functions of our compounds on metabolic diseases.
8-10 weeks age mice were maintained as example 4, and fed with high-fat diet (Research Diets, D12492). Mice were i.p. injected with compounds once daily for 7, 10, 11 or 14 days as indicated in each table. After the last compounds injection, mice were fasted for 6 hours with free access to water, and then sacrificed. Part of each liver was fixed in 4% paraformaldehyde for H&E staining, and other liver tissues were stored in liquid nitrogen for enzyme activity measurement and gene expression analysis by RT-PCR. The serums were collected to measure metabolic parameters, including serum glucose, insulin, cholesterol, free fatty acid (FFA) and triglyceride levels. Serum glucose was analyzed using glucose oxidase method (Applygen, Beijing, China). The blood glucose in Table 11 was measured with Berenger blood glucose test strips (B/BRAUN, German) from blood by cutting mice tail after the 6th injection and following fast for 16 hours. Serum cholesterol and FFA were analyzed using Cholesterol Assay Kit and FFA Assay Kit (Bioassay Systems, USA; Nanjing Jiancheng Bioengineering Institute, China; FFA ELISA, R&D, USA), respectively. Serum triglyceride was analyzed using Triglyceride Assay Kit (Bioassay Systems, USA; WAKO Chemicals Inc., Japan; Applygen, Beijing, China). Liver triglyceride was analyzed using Tissue triglyceride assay kit (Applygen, Beijing, China). Serum insulin levels were measured by the Ultra Sensitive Mouse Insulin ELISA Kit (Crystal Chem. Inc., USA). RNA was isolated using Tissue RNA kit (Omega Bio-Tek, GA). The first strand cDNA were obtained by TAKARA reverse transcription kit. Real-time quantitative PCR were performed on a CFX96™ Real-Time PCR Detection System (Bio-Rad) using SYBR Premix Ex Taq™ (TAKARA). Relative mRNA expression levels were normalized to actin levels. […]

db/db mice [8] = assay: Hepatic triglyceride, liver histology, serum ALT and ALP in high-fat diet fed db/db mice; format: in vivo, mouse; conditions: 10 mg/kg for 10 days
Protocol: Liver tissues fixed in 4% paraformaldehyde in example 5 were performed for H&E staining by standard procedures. Liver tissues fixed in 4% paraformaldehyde were embedded in optimum cutting temperature compound (OCT), and cryosectioned. Frozen liver sections were stained with 0.3% oil red O according to standard procedures.
The triglyceride levels in liver tissues from mice treated with compounds were analyzed using Tissue triglyceride assay kit (Applygen, Beijing, China).
Alkaline Phosphatase (ALP) is a marker of cholestasis. Cholestasis can be suspected when there is an elevation of ALP enzymes. In fact, greater than 90% of patients with bile stasis will have an elevated alkaline phosphatase. […] The aminotransferase is used to evaluate the presence of hepatitis and may be elevated in cholestasis or with common bile duct obstruction. In this example, 8-10 week age db/db mice were fed with high-fat diet and treated with 10 mg/kg of compounds once daily for 10 days as in Example 5. The activities of serum ALP and ALT were analyzed using ALP kit and ALT kit, respectively (Nanjing Jiancheng Engineering Institute, China).

[9] = target: T2, FXR ligand binding domain (LBD) (Homo sapiens, UniProt Q96RI1); assay: AlphaScreen assay: FXR LBD recruitment of coregulator peptide motifs (SRC2-3, SRC1-2); format: biochemical; conditions: Table 2
T2 construct: made in house
T2 sequence (Q96RI1 262-486 limits assumed): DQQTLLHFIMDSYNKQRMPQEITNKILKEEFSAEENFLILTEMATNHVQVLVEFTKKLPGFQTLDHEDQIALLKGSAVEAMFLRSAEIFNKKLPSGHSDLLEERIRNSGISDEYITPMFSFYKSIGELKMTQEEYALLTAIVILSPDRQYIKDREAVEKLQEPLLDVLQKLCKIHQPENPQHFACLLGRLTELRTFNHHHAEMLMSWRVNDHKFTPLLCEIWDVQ
Protocol: In search of novel ligands for FXR, we used FXR ligand binding domain (LBD) as a bait to screen chemical libraries based on AlphaScreen biochemical assay, which determines the efficacy of small molecules in influencing binding affinity of FXR with coregulator peptides (see e.g., Jin et al., (2013) Nature communications 4, 1937).
The binding of the cofactor peptide motifs to FXR ligand binding domain (LBD) in response to ligands was determined by AlphaScreen assays using a hexahistidine detection kit from Perkins-Elmer. The FXR LBD protein was purified as described previously (see e.g., Jin et al., (2013) Nature communications 4, 1937). The experiments were conducted with approximately 20-40 nM receptor LBD and 20 nM biotinylated cofactor peptides in the presence of 5 μg/ml donor and acceptor beads in a buffer containing 50 mM MOPS, 50 mM NaF, 0.05 mM CHAPS, and 0.1 mg/ml bovine serum albumin, all adjusted to a pH of 7.4.

[10] = SRC1-2 peptide, read-out: EC50 (μM) of FXR binding by AlphaScreen assay recruit SRC1-2
[11] = SRC2-3 peptide, read-out: EC50 (μM) of FXR binding by AlphaScreen assay recruit SRC2-3

Cell-based FXR transactivation Fold changes by 5 μM compound (full-length FXR)	EC50 (full-length FXR)	EC50 [9, 10]	EC50 [9, 11]	Structure (SMILES)	viability at 20 µM [1]	viability at 40 µM [1]	mRNA level of iNOS (fold), Liver tissue ([2]; vehicle 1.06 ± 0.14)	mRNA level of iNOS (fold), Colon tissue ([2]; vehicle 1.12 ± 0.23)	viability at 20 µM [3]	viability at 40 µM [3]	viability at 20 µM [4]	viability at 40 µM [4]	viability at 20 µM [5]	viability at 40 µM [5]	viability at 20 µM [6]	viability at 40 µM [6]	Serum Glucose (mg/dl) (db/db mice [7])	Hepatic triglyceride (mM/g) (db/db mice [8]; vehicle 148 ± 14)	Serum ALT (U/L) (db/db mice [8]; vehicle 377 ± 48, Table 15)
3	1 to 10 µM			Cc1cc(C(=O)OC2CC3CCC2(C)C3(C)C)ccc1[N+](=O)[O-] (centres unmarked) [XD-15, 1,7,7-trimethyl-bicyclo[2.2.1]-heptan-2-yl 3-methyl-4-nitro-benzoate]	89 ± 6%	70 ± 3%	0.47 ± 0.21^a fold	0.41 ± 0.16^a fold	100 ± 2%	62 ± 3%	81 ± 4%	70%	79%	72 ± 3%	59 ± 3%	40 ± 3%			
1.2	< 1 µM			O=C(OC1CCCCCCC1)c1ccc([N+](=O)[O-])cc1 [XD-24, cyclooctyl 4-nitrobenzoate]													307 ± 39^a mg/dl		
1.5	< 1 µM			O=C(OC1CC2CCC1C2)c1ccc([N+](=O)[O-])cc1 (centres unmarked) [XD-25, bicyclo[2.2.1]-heptan-2-yl 4-nitrobenzoate]	100 ± 2%	100 ± 2%			100 ± 4%	89 ± 4%	100 ± 2%	97 ± 2%	100 ± 5%	90 ± 4%	79 ± 2%	66 ± 5%	389 ± 47^a mg/dl	116 ± 5 ^c mM/g	124 ± 21 ^a U/L
−5	< 1 µM	< 1 µM	< 1 µM	Cc1cc(C(=O)OC2CCC3CCCCC3C2)ccc1N (centres unmarked) [XD-31, decahydro-naphthalen-2-yl 4-amino-3-methylbenzoate]	74%	42 ± 1%			100 ± 1%	41 ± 1%	100 ± 1%	100 ± 1%	100 ± 1%	90 ± 1%	63 ± 1%	59 ± 1%	326 ± 51^a mg/dl		
2	1 to 10 µM	< 1 µM	< 1 µM	O=C(OC1CCC2CCCCC2C1)c1ccc(F)cc1 (centres unmarked) [XD-33, decahydro-naphthalen-2-yl 4-fluorobenzoate]	97 ± 2%	98 ± 2%			100 ± 2%	100 ± 2%	100 ± 2%	95 ± 2%	100 ± 2%	95 ± 2%	97 ± 2%	95 ± 2%	400 ± 23^a mg/dl		
